Test results published in patent US9212134B2, “Inhibitors of viral entry into mammalian cells” (priority 2010, dated 2015).
Entries after “also recorded” stand apart in the source; their conditions may differ.

Columns and labels:
[1] = test system: HIV/HA (H5) pseudotype virus; assay: organism not typed; type: cell-based, influenza A virus H5N1; conditions: for inhibition at 25 µM: A549, read-out: % inhibition @ 25 μM influenza
[2] = test system: HIV/VSV-G pseudotype virus; assay: organism not typed; type: cell-based, vesicular stomatitis virus; conditions: for inhibition at 25 µM: read-out: % inhibition @ 25 μM VSV
[3] = test system: HIV/HA (H7) pseudotype virus; type: cell-based, influenza virus (H7)
[4] = test system: HIV/MLV pseudotype virus; type: cell-based
[5] = test system: Influenza H1N1 (PR8); type: cell-based, influenza virus H1N1 (PR8)
[6] = test system: cell viability (endogenous cellular GAPDH); assay: Cell viability, AlphaScreen SureFire GAPDH assay; conditions: cytotoxicity
[7] = test system: Pseudotype ebola virus; assay: microbe, parasite or virus in culture; type: cell-based; conditions: Zaire ebolavirus, read-out: % inhibition @ 25 μM EBOV
[8] = test system: HIV/HA pseudotype virus; type: cell-based, influenza A virus H5N1
[9] = test system: Influenza A virus [A/WS/33]; assay: Plaque assay of influenza A virus A/WS/33 on MDCK cells; type: cell-based, influenza A virus A/WS/33 (H1N1); conditions: 25-200 nM (FIG. 7)

O=C(CN(c1ccc(Cl)cc1Cl)S(=O)(=O)c1ccccc1)Nc1ccccc1F [Compound 2]
IC90 [1]: 3.9 µM | IC90 [2]: > 100 µM | IC90 [3]: > 100 µM | IC90 [4]: 99 µM | IC50 [5]: 5.2 µM

O=C(CN(c1ccc(Cl)cc1Cl)S(=O)(=O)c1ccccc1)Nc1ccccc1F [Compound 6]
IC50 [1]: 5.3 µM | CC50 [6]: > 25 µM

COc1cccc(N(CC(=O)Nc2cc(Cl)cc(Cl)c2)S(=O)(=O)c2ccccc2)c1 [Compound 7]
IC50 [1]: 18.5 µM | CC50 [6]: 31.5 µM

COc1ccc(OC)c(N(CC(=O)Nc2ccc(Cl)cc2)S(=O)(=O)c2ccc(C)cc2)c1 [Compound 8]
IC50 [1]: > 100 µM | CC50 [6]: > 100 µM

O=C(CN(c1ccc(Cl)c(Cl)c1)S(=O)(=O)c1ccccc1)Nc1ccccc1 [Compound 9]
IC50 [1]: 20 µM | CC50 [6]: 42 µM

O=C(CN(c1ccc(Cl)cc1Cl)S(=O)(=O)c1ccccc1)Nc1ccc(F)cc1 [Compound 10]
IC50 [1]: 25 µM | CC50 [6]: 50.5 µM

COc1ccc(N(CC(=O)Nc2ccccc2C)S(=O)(=O)c2ccccc2)cc1 [Compound 11]
IC50 [1]: > 100 µM | CC50 [6]: > 100 µM

COc1ccc(N(CC(=O)Nc2ccc(F)cc2)S(=O)(=O)c2ccccc2)cc1 [Compound 12]
IC50 [1]: > 100 µM | CC50 [6]: > 100 µM

COc1ccc(N(CC(=O)Nc2c(OC)cccc2OC)S(=O)(=O)c2ccccc2)cc1 [Compound 13]
IC50 [1]: > 100 µM | CC50 [6]: > 100 µM

COc1ccccc1N(CC(=O)Nc1cccc(C)c1C)S(=O)(=O)c1ccccc1 [Compound 14]
IC50 [1]: > 100 µM | CC50 [6]: > 100 µM

COc1cccc(NC(=O)CN(c2ccc(Cl)cc2C)S(=O)(=O)c2ccc(C)cc2)c1 [Compound 15]
IC50 [1]: > 100 µM | CC50 [6]: 43.4 µM

COc1ccc(NC(=O)CN(c2ccc(Cl)cc2)S(=O)(=O)c2ccc(C)cc2)cc1 [Compound 16]
IC50 [1]: > 100 µM | CC50 [6]: > 100 µM

Cc1cccc(C)c1NC(=O)CN(c1cccc(Cl)c1)S(=O)(=O)c1ccccc1 [Compound 17]
IC50 [1]: > 100 µM | CC50 [6]: > 100 µM

COc1ccc(NC(=O)CN(c2cccc(Cl)c2)S(=O)(=O)c2ccccc2)c(OC)c1 [Compound 18]
IC50 [1]: > 100 µM | CC50 [6]: > 100 µM

O=C(CN(c1cccc(Cl)c1)S(=O)(=O)c1ccccc1)Nc1ccccc1Cl [Compound 19]
IC50 [1]: > 100 µM | CC50 [6]: 90.3 µM

Cc1cccc(C)c1NC(=O)CN(c1ccccc1Cl)S(=O)(=O)c1ccccc1 [Compound 20]
IC50 [1]: > 100 µM | CC50 [6]: > 100 µM

COc1ccc(OC)c(NC(=O)CN(c2ccccc2Cl)S(=O)(=O)c2ccc(C)cc2)c1 [Compound 21]
IC50 [1]: > 100 µM | CC50 [6]: > 100 µM

Cc1ccc(S(=O)(=O)N(CC(=O)Nc2cccc(C)c2)c2ccccc2Cl)cc1 [Compound 22]
IC50 [1]: > 100 µM | CC50 [6]: > 100 µM

COc1ccc(NC(=O)CN(c2ccccc2Cl)S(=O)(=O)c2ccc(C)cc2)c(OC)c1 [Compound 23]
IC50 [1]: > 100 µM | CC50 [6]: > 100 µM

COC(=O)c1ccccc1NC(=O)CN(c1ccc(C)cc1)S(=O)(=O)c1ccc(OC)cc1 [Compound 11978_G07]
inhibition at 25 µM [1]: 22% | inhibition at 25 µM [2]: 29% | inhibition at 25 µM [7]: 89%

CCOc1ccc(N(C(C)C(=O)Nc2cccc(C(F)(F)F)c2)S(C)(=O)=O)cc1 (centres unmarked) [Compound 11982_F11]
inhibition at 25 µM [1]: 87% | inhibition at 25 µM [2]: 73% | inhibition at 25 µM [7]: 25%

COc1cccc(N(CC(=O)Nc2ccc(CSc3ccccc3)cc2)S(C)(=O)=O)c1 [Compound 11997_F05]
inhibition at 25 µM [1]: 100% | inhibition at 25 µM [2]: 51% | inhibition at 25 µM [7]: 41%

Cc1cccc(NC(=O)CN(c2cccc(Cl)c2Cl)S(C)(=O)=O)c1 [Compound 11998_D06]
inhibition at 25 µM [1]: 88% | inhibition at 25 µM [2]: 0% | inhibition at 25 µM [7]: 0%

CS(=O)(=O)N(CC(=O)Nc1ccccc1F)c1cc(C(F)(F)F)ccc1Cl [Compound 12020_E02]
inhibition at 25 µM [1]: 86% | inhibition at 25 µM [2]: 68% | inhibition at 25 µM [7]: 43%

COc1ccc(Cl)cc1NC(=O)CN(c1cccc(Cl)c1Cl)S(C)(=O)=O [Compound 12021_B02]
inhibition at 25 µM [1]: 87% | inhibition at 25 µM [2]: 70% | inhibition at 25 µM [7]: 0%

CCc1ccc(N(CC(=O)Nc2ccc(Oc3ccccc3)cc2)S(C)(=O)=O)cc1 [Compound 12066_B08]
inhibition at 25 µM [1]: 98% | inhibition at 25 µM [2]: 24% | inhibition at 25 µM [7]: 31%

Cc1c(Cl)cccc1NC(=O)CN(c1ccc(I)cc1)S(C)(=O)=O [Compound 12076_B09]
inhibition at 25 µM [1]: 86% | inhibition at 25 µM [2]: 21% | inhibition at 25 µM [7]: 48%

COc1ccccc1NC(=O)CN(c1ccc(Cl)cc1C)S(C)(=O)=O [Compound 12078_B05]
inhibition at 25 µM [1]: 96% | inhibition at 25 µM [2]: 36% | inhibition at 25 µM [7]: 42%

COc1ccc(S(=O)(=O)N(CC(=O)Nc2ccc(F)c(Cl)c2)c2ccccc2)cc1 [Compound 12078_D04]
inhibition at 25 µM [1]: 40% | inhibition at 25 µM [2]: 60% | inhibition at 25 µM [7]: 87%

COc1ccc(S(=O)(=O)N(CC(=O)Nc2ccc(F)cc2F)c2ccc(Cl)cc2)cc1 [Compound 12079_A05]
inhibition at 25 µM [1]: 19% | inhibition at 25 µM [2]: 0% | inhibition at 25 µM [7]: 86%

COc1ccc(Cl)cc1N(CC(=O)Nc1ccc(F)cc1F)S(=O)(=O)c1ccc(C)cc1 [Compound 12096_A08]
inhibition at 25 µM [1]: 88% | inhibition at 25 µM [2]: 42% | inhibition at 25 µM [7]: 38%

CCOc1ccccc1NC(=O)CN(c1cc(Cl)ccc1Cl)S(C)(=O)=O [Compound 12110_D02]
inhibition at 25 µM [1]: 90% | inhibition at 25 µM [2]: 2% | inhibition at 25 µM [7]: 0%

CCc1ccccc1N(CC(=O)Nc1cccc(F)c1)S(C)(=O)=O [Compound 12112_H02]
inhibition at 25 µM [1]: 86% | inhibition at 25 µM [2]: 0% | inhibition at 25 µM [7]: 0%

COc1ccc(S(=O)(=O)N(CC(=O)Nc2cccc3ccccc23)c2ccc(C)cc2)cc1 [Compound 12305_B04]
inhibition at 25 µM [1]: 47% | inhibition at 25 µM [2]: 0% | inhibition at 25 µM [7]: 85%

COc1ccc(S(=O)(=O)N(CC(=O)Nc2cccc3ccccc23)c2ccc(Cl)cc2)cc1 [Compound 12308_B02]
inhibition at 25 µM [1]: 46% | inhibition at 25 µM [2]: 23% | inhibition at 25 µM [7]: 96%

Cc1ccc(N(CC(=O)Nc2ccccc2C(C)C)S(C)(=O)=O)cc1 [Compound 12402_E03]
inhibition at 25 µM [1]: 47% | inhibition at 25 µM [2]: 22% | inhibition at 25 µM [7]: 85%

Cc1ccc(S(=O)(=O)N(CC(=O)Nc2ccccc2C(F)(F)F)c2ccc(F)cc2)cc1 [Compound 12440_F06]
inhibition at 25 µM [1]: 46% | inhibition at 25 µM [2]: 45% | inhibition at 25 µM [7]: 93%

COc1ccc(N(CC(=O)Nc2ccccc2F)S(=O)(=O)c2ccccc2)cc1Cl [Compound 12441_B08]
inhibition at 25 µM [1]: 33% | inhibition at 25 µM [2]: 7% | inhibition at 25 µM [7]: 98%

COc1ccc(S(=O)(=O)N(CC(=O)Nc2ccccc2SC)c2ccc(Cl)cc2)cc1 [Compound 12794_B09]
inhibition at 25 µM [1]: 0% | inhibition at 25 µM [2]: 63% | inhibition at 25 µM [7]: 100%

COc1ccc(N(CC(=O)Nc2ccccc2SC)S(=O)(=O)c2ccc(F)cc2)cc1 [Compound 12794_H03]
inhibition at 25 µM [1]: 47% | inhibition at 25 µM [2]: 77% | inhibition at 25 µM [7]: 100%

COc1ccc(N(CC(=O)Nc2ccccc2-c2ccccc2)S(=O)(=O)c2ccc(F)cc2)cc1 [Compound 12838_B07]
inhibition at 25 µM [1]: 46% | inhibition at 25 µM [2]: 77% | inhibition at 25 µM [7]: 99%

COC(=O)c1ccccc1NC(=O)CN(c1ccc(C)cc1)S(=O)(=O)c1ccccc1 [Compound 30636_C03]
inhibition at 25 µM [1]: 26% | inhibition at 25 µM [2]: 42% | inhibition at 25 µM [7]: 87%

O=C(CN(c1ccccc1F)S(=O)(=O)c1ccccc1)Nc1cccc(C(F)(F)F)c1 [Compound 30656_D10]
inhibition at 25 µM [1]: 87% | inhibition at 25 µM [2]: 59% | inhibition at 25 µM [7]: 31%

Cl.N [NH4Cl, ammonium chloride]
reduction of HIV/HA virus infection [8]: significantly reduced the virus infection

CO/C1=C\C(C)=C\[C@@H](C)[C@@H](O)[C@@H](C)C/C(C)=C/C=C/[C@H](OC)[C@@H]([C@@H](C)[C@@H](O)[C@H](C)[C@@]2(O)C[C@@H](O)[C@H](C)[C@@H](C(C)C)O2)OC1=O [bafilomycin A]
inhibition of infectivity of HIV/HA pseudotype virus [8]: efficiently inhibited the infectivity; also recorded: prevented HIV/HA infection | inhibition of infectivity of influenza virus infection [9]: efficiently inhibited the infectivity
